{"source": "paper PMC4263137", "about": "“Positron emission tomography and functional characterization of a complete PBR/TSPO knockout” (Nature Communications, 2014)", "target": "T1, PBR/TSPO (18-kDa translocator protein) (Mus musculus, UniProt P50637)", "T1 construct": "native protein in kidney and testis membranes of Tspo+/+ mice", "T1 sequence (P50637 whole entry)": "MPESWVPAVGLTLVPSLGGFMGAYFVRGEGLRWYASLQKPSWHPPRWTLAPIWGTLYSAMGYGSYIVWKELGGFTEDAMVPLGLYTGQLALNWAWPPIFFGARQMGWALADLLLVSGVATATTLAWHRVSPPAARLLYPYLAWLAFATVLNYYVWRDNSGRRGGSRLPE", "assay": "[3H]PK11195 saturation radioligand binding on tissue membranes; autoradiography; no binding in Tspo-/- mice"}
{"compound": "CCC(C)N(C)C(=O)c1cc2ccccc2c(-c2ccccc2Cl)n1", "note": "(stereo not shown) [PK11195, 1-(2-chlorophenyl)-N-methyl-(1-methylpropyl)-3 isoquinolinecarboxamide]", "values": [{"measurement": "Kd", "value": 12.9, "unit": "nM"}]}
